Structures are written as SMILES.

Consider five compounds from patent US5880157A, “Derivatives of tetramethylcyclopropane” (Yissum Research Development Company of the Hebrew …, priority 1994, dated 1999).

The conditions of data set [1]: in words; literature; cited from earlier work.
Data set [2] concerns subcutaneous pentylenetetrazol (Metrazol) seizure threshold. Nature of the data set: subcutaneous pentylenetetrazol (Metrazol) seizure threshold (s.c. Met) test, mice. As to conditions: for ED50: Mus musculus, sc, read-out: scMet ED50; for scMet PI (protective index, TD50/ED50): mice; for effective doses in the s.c. Met test compared with VPA or ETS: mouse model, in words. From the text: (§1) All compounds described before were screened for their ability to protect against seizures in two different models of epilepsy: the maximal electroshock seizure (MES) model; and the subcutaneous pentylenetetrazol (Metrazol) seizure threshold (s.c.Met) test. Agents effective in the MES model have been correlated with the ability to prevent the seizure spread, whereas those agents effective in the s.c. Met model have been correlated with the ability to raise the threshold for excitation of neural tissue. The PI value, the protective index, is calculated as described below.
(§2) The MES test is the most commonly used test to assess activity against these types of seizures.

The test system of data set [3] is maximal electroshock seizure (MES). The data set can be described thus: maximal electroshock seizure (MES) test, rats. To be noted: for ED50: Rattus norvegicus, read-out: MES ED50; for MES PI (protective index, TD50/ED50) / effective dose in the MES test (ED50) compared with Valproic Acid: rats; for effective dose in the MES test (ED50) compared with Valproic Acid: in words.
Text: as §1, §2

The test system of data set [4] is subcutaneous pentylenetetrazol (Metrazol) seizure threshold. The data set can be described thus: subcutaneous pentylenetetrazol (Metrazol) seizure threshold (s.c. Met) test, rats. As to conditions: for ED50: Rattus norvegicus, sc, read-out: scMet ED50; for scMet PI (protective index, TD50/ED50): rats.
Text: as §1, §2

Data set [5] is described as follows: neurotoxicity, rotorod ataxia test, mice (i.p.). The class given is in vivo, mouse. The protocol:
(§3) Neurotoxicity of the described compounds was assessed in mice (i.p. administration) by the rotorod ataxia test (See Swinyard et al., Supra, pages 85-100), and also in some cases in rats (p.o. administration) by the positional sense test and gait and stance test (see Swinyard above) .

For data set [6], the system named is maximal electroshock seizure (MES). The data set can be described thus: maximal electroshock seizure (MES) test, mice. To be noted: for ED50: Mus musculus, read-out: MES ED50; for MES PI (protective index, TD50/ED50) / effective dose in the MES test (ED50) compared with Valproic Acid: mice; for effective dose in the MES test (ED50) compared with Valproic Acid: in words.
Text: as §1, §2
On the technique in general: The maximal electroshock test induces tonic seizures with an electrical stimulus.

Data set [7] is described as follows: neurotoxicity, positional sense test and gait and stance test, rats (p.o.). The class given is in vivo, rat. The procedure: as §3

For `CCCC(CCC)C(=O)O` [Valproic Acid, reference compound], the adverse side effects entry in data set [1] is “considerable adverse side effects including hepatoxicity and teratogenicity”. In addition, the ED50 (commonly the dose that gives a 50% effect, or the effect in half of the subjects) in data set [2] was 149 mg/kg; in data set [3], 490 mg/kg; in data set [4] it was 180 mg/kg.

For `CNC(=O)C1C(C)(C)C1(C)C` [Compound 1, N-Methyl-2,2,3,3-tetramethylcyclopropanecarboxamide], in data set [2], the ED50 came out at 39 mg/kg; the “scMet PI (protective index, TD50/ED50)” value came to 2.1; the “effective doses in the s.c. Met test compared with VPA or ETS” value (from here on “effective doses … compared with VPA or ETS”) is on record as “lower than that found for either VPA or ETS”. Moreover, in data set [3], the 50% effective dose (ED50) amounted to 82 mg/kg; the “MES PI (protective index, TD50/ED50)” value turned out to be 2.0; the “effective dose in the MES test (ED50) compared with Valproic Acid” value (“effective dose … compared with Valproic Acid” for short) is on record as “lower effective dose in the MES test”. Besides, in data set [5] (mouse, ip, read-out: TD50 (median neurological toxic dose)), the TD50 (as a rule, the dose at which the toxic effect under study appears in half of the subjects) is 83 mg/kg. Further, in data set [4], the ED50 was 45 mg/kg and the “scMet PI (protective index, TD50/ED50)” value is on record as 3.6. In data set [6], the ED50 came out at 98 mg/kg; the “MES PI (protective index, TD50/ED50)” value is recorded as 0.8; the “effective dose … compared with Valproic Acid” value is on record as “lower effective dose in the MES test”. Also, the “TD50 (median neurological toxic dose)” value in data set [7] came out at 163 mg/kg.

On to `CC1(C)C(C(=O)NCC(N)=O)C1(C)C` [Compound 2, N-[(2,2,3,3-Tetramethylcyclopropyl)carbonyl]-glycinamide], for which, in data set [2], the ED50 was determined as 115 mg/kg; the “scMet PI (protective index, TD50/ED50)” value was 2.3; the “effective doses … compared with VPA or ETS” value is reported as “lower than that found for either VPA or ETS”. Moreover, in data set [3], the ED50 is 82 mg/kg; the “MES PI (protective index, TD50/ED50)” value is reported as more than 6.1; the “effective dose … compared with Valproic Acid” value is on record as “lower effective dose in the MES test”. Moreover, the “TD50 (median neurological toxic dose)” value in data set [5] amounted to 259 mg/kg. The ED50 in data set [4] was more than 250 mg/kg. For the same compound, in data set [6], the ED50 amounted to 173 mg/kg; the “MES PI (protective index, TD50/ED50)” value was 1.5; the “effective dose … compared with Valproic Acid” value is given as “lower effective dose in the MES test”. Besides, in data set [7] (rat, po, read-out: TD50 (median neurological toxic dose)), the TD50 is more than 500 mg/kg.

Take `CCC1(C)CC(=O)NC1=O` (stereo not shown) [ETS, Ethosuximide, reference compound]: the ED50 in data set [2] was 130 mg/kg; in data set [3], more than 1200 mg/kg; in data set [4] it was 54 mg/kg; in data set [6], more than 1000 mg/kg. In addition, in data set [5], the “TD50 (median neurological toxic dose)” value is 441 mg/kg.

As to `CC1(C)C(C(N)=O)C1(C)C` [Compound 3, 2,2,3,3-Tetramethylcyclopropanecarboxamide], the ED50 in data set [2] is 57 mg/kg; in data set [3], more than 250 mg/kg; in data set [4], 52 mg/kg; in data set [6], more than 120 mg/kg. Moreover, the results for the “scMet PI (protective index, TD50/ED50)” value in data set [2] and in data set [4] were 1.7 and 7.3, respectively. Further, in data set [2], the “effective doses … compared with VPA or ETS” value is listed as “lower than that found for either VPA or ETS”. Moreover, the results for the “TD50 (median neurological toxic dose)” value in data set [5] and in data set [7] were 99 mg/kg and 381 mg/kg, respectively.
